# Measured values taken from patent publication US20200061007A1, “CANCER STEM CELL PROLIFERATION INHIBITOR” (NATIONAL INSTITUTE OF ADVANCED INDUSTRIAL SCIENCE AND …, priority 2014, published 2020).
# Tests used:
# [1] = Body weight of tumor-bearing nude mice; format: in vivo; conditions: Am80 3 mg/kg/day for 1 month
# Method: (§1) Pancreatic cancer cells (1×10^6 cells) containing pancreatic cancer stem cells were subcutaneously transplanted to nude mice. Mice in which tumor formation was found 2 weeks later were subjected to administration of Am80 for 1 month at 3 mg/kg/day.
# [2] = system: human pancreatic cancer cell line Panc-1 cell clusters; experiment: Growth of human pancreatic cancer cell spheroids in suspension culture; format: cell-based
# Method: Culturing of a human pancreatic cancer cell line in DMEM/F12 medium supplemented with B27, 20 ng/mL EGF, 20 ng/mL bFGF, and 4 μg/mL heparin using a low-adhesion dish allows formation of cell clusters, and the cells can be cultured in a suspended state. Under these conditions, the cells can be cultured such that they show increased levels of several cancer stem cell markers as well as markers reported for other cancers. First, the cell clusters containing the cells positive for the cancer stem cell markers were cultured in a medium supplemented with Am80 for 1 week, and the influences of Am80 on the growth of cell clusters and the expression levels of the cancer stem cell markers were analyzed.
# [3] = system: human pancreatic cancer cells containing pancreatic cancer stem cells; experiment: Growth of subcutaneously transplanted pancreatic cancer in nude mice; format: in vivo; conditions: Am80 3 mg/kg/day for 1 month, vs control
# Method: as §1
# Pancreatic cancer cells (1×10^6 cells) containing pancreatic cancer stem cells were subcutaneously transplanted to nude mice. Mice in which tumor formation was found 2 weeks later were subjected to daily administration of Am80 at 3 mg/kg/day and administration of gemcitabine at 50 mg/kg at intervals of 3 days for 1 month. […] Gem herein represents gemcitabine.
# Pancreatic cancer cells (1×10^6 cells) containing pancreatic cancer stem cells were subcutaneously transplanted to nude mice. Mice in which tumor formation was found 2 weeks later were subjected to daily administration of Am80 at 3 mg/kg/day and administration of VPA at 500 mg/kg at intervals of 3 days for 1 month.
# [4] = system: Human Pancreatic Cancer Cell Panc-1 Spheroids; experiment: ALDH activity (ALDEFLUOR, flow cytometry) in Panc-1 spheroids; format: cell-based; conditions: suspension culture with Am80 for 1 week
# Method: As shown in Example 1, Am80 suppresses formation of cell clusters of the pancreatic cancer cell line in the suspension-culture state, and this might be due to a decrease in the number of the stem cells that act as the seeds of the cell clusters. It is known that the activity of aldehyde dehydrogenase (ALDH) is high in hematopoietic stem cells and progenitor cells, but low in differentiated cells. In view of this, a precursor Bodipy-aminoacetaldehyde (ALDEFLUOR, Stem Cell Technologies) was added to pancreatic cancer cells prepared by performing suspension culture in the presence of Am80 for 1 week, and the number of cells positive for the fluorescence of Bodipy-aminoacetate produced by metabolism by the aldehyde dehydrogenase activity was analyzed by quantification by flow cytometry.
# [5] = system: Human Pancreatic Cancer Stem Cells Transplanted to Nude Mice; experiment: Ratio of pancreatic cancer stem cells in removed tumor (anti-CD133 flow cytometry); format: in vivo; conditions: Am80 3 mg/kg/day for 1 month, vs control
# Method: as §1, with “mg/kg/day. Thereafter, the tumor was removed, and the tumor cells were treated by trypsin, followed by measuring the ratio of pancreatic cancer stem cells by flow cytometry using an anti-CD133 antibody.” for “mg/kg/day.”
# [6] = system: human breast cancer cell line MCF-7; experiment: Tumor volume, MCF-7/nude mice; format: in vivo
# Method: A tumor piece of a human breast cancer cell line MCF-7 containing cells positive for cancer stem cell markers was subcutaneously transplanted to the dorsal part of each of 6-week-old female BALB/cAJc1-nu nude mice (5 mice/group) using a trocar needle. At the time when the tumor volume reached 100 to 200 mm^3, the administration was started. Am80 was orally administered once a day at a dose of 1 mg/kg for 21 continuous days, and DXL was intravenously administered at a dose of 3.5 mg/kg from Day 1, 3 times at intervals of 4 days. In the combination group, the agents were administered at the same doses as, and by the same administration methods as, those in the cases of administration of each single agent. Measurement of the tumor diameter was carried out until the next day of the completion of the administration (Day 22). The longitudinal diameter and the transverse diameter of the tumor were measured using a caliper, and the tumor volume (mm^3) was determined according to the following formula: longitudinal diameter×transverse diameter^2/2. In the control group, physiological saline was intraperitoneally administered from Day 1, 3 times at intervals of 4 days.
# [7] = system: Human pancreatic cancer cells; experiment: Sphere formation of gemcitabine-treated pancreatic cancer cells (colony count); format: cell-based; conditions: cells cultured with gemcitabine (10 nM) 1 week, then Am80 1 week
# Method: Human pancreatic cancer cells were cultured in the suspension-culture state in the presence of gemcitabine (10 nM) for 1 week. Thereafter, Am80 was added to the culture, and suspension culture was carried out for 1 week, followed by counting the number of colonies formed.
# [8] = system: human pancreatic cancer cells MIA-Paca2; experiment: Tumor volume, MIA-Paca2/nude mice; format: in vivo
# Method: A tumor piece of human pancreatic cancer cells MIA-Paca2 containing cells positive for cancer stem cell markers was subcutaneously transplanted to the dorsal part of each of 6-week-old female BALB/cAJc1-nu nude mice (4 mice/group, 5 mice only for the control group) using a trocar needle. At the time when the tumor volume reached 100 to 200 mm^3, the administration was started. Am80 was orally administered once a day at a dose of 2 mg/kg for 21 continuous days, and DXL was intravenously administered at a dose of 5 mg/kg from Day 1, 3 times at intervals of 4 days. In the combination group, the agents were administered at the same doses as, and by the same administration methods as, those in the cases of administration of each single agent. Measurement of the tumor diameter was carried out until the next day of the completion of the administration (Day 22). Based on the measured values of the longitudinal diameter and the transverse diameter, the tumor volume (mm^3) was determined according to the following formula: longitudinal diameter×transverse diameter^2/2. In the control group, physiological saline was intraperitoneally administered from Day 1, 3 times at intervals of 4 days.
# [9] = suspension culture with Am80 for 1 week
smiles,measurement,setting,value
"CC1(C)CCC(C)(C)c2cc(NC(=O)c3ccc(C(=O)O)cc3)ccc21 [Am80, tamibarotene]",body weight,[1],not influenced
same,sizes of the cell clusters,[2]; cultured for a total of 2 weeks in Am80-containing medium,further decreased
same,growth of the cell clusters,[2]; [9],suppressed dependently on the concentration
same,number of cells,[2]; [9],decreased dependently on the concentration
same,growth of the pancreatic cancer,[3],could be suppressed in vivo compared to the control
same,ALDH activity (ALDH-positive cells),[4],concentration-dependent decrease
same,ratio of pancreatic cancer stem cells (CD133) in tumor,[5],action to suppress pancreatic cancer stem cells in vivo
same,tumor volume Day 1,"[6]; Am80 1 mg/kg oral daily 21 days, DXL 3.5 mg/kg i.v. 3 times at intervals of 4 days, Day 1",155.3 mm^3
same,tumor volume Day 5,"[6]; Am80 1 mg/kg oral daily, DXL 3.5 mg/kg i.v., Day 5",151.3 mm^3
same,tumor volume Day 9,"[6]; Am80 1 mg/kg oral daily, DXL 3.5 mg/kg i.v., Day 9",155.5 mm^3
same,tumor volume Day 13,"[6]; Am80 1 mg/kg oral daily, DXL 3.5 mg/kg i.v., Day 13",208.9 mm^3
same,tumor volume Day 17,"[6]; Am80 1 mg/kg oral daily, DXL 3.5 mg/kg i.v., Day 17",229.4 mm^3
same,tumor volume Day 22,"[6]; Am80 1 mg/kg oral daily, DXL 3.5 mg/kg i.v., Day 22",261.4 mm^3
same,sphere formation (number of colonies formed),[7],in vitro inhibitory effect on sphere formation
same,tumor volume Day 1,"[8]; Am80 2 mg/kg oral daily 21 days, DXL 5 mg/kg i.v. 3 times at intervals of 4 days, Day 1",151.3 mm^3
same,tumor volume Day 5,"[8]; Am80 2 mg/kg oral daily, DXL 5 mg/kg i.v., Day 5",182.1 mm^3
same,tumor volume Day 9,"[8]; Am80 2 mg/kg oral daily, DXL 5 mg/kg i.v., Day 9",255.5 mm^3
same,tumor volume Day 13,"[8]; Am80 2 mg/kg oral daily, DXL 5 mg/kg i.v., Day 13",348.8 mm^3
same,tumor volume Day 17,"[8]; Am80 2 mg/kg oral daily, DXL 5 mg/kg i.v., Day 17",429.9 mm^3
same,tumor volume Day 22,"[8]; Am80 2 mg/kg oral daily, DXL 5 mg/kg i.v., Day 22",466.4 mm^3
